Source: US20180119123A1, “CRISPR/CAS-RELATED METHODS AND COMPOSITIONS FOR TREATING HIV INFECTION AND AIDS” (EDITAS MEDICINE, INC., priority 2015, published 2018)
Entries after “also recorded” stand apart in the source; their conditions may differ.

Tested on: CXCR4 locus
Assay: T7E1 assay for indels/NHEJ at the CXCR4 locus in Nucleofected CD34+ HSCs
Type: cell-based, human
Conditions: 40 nM UM171; S. aureus or S. pyogenes Cas9 and CXCR4 gRNA plasmids; 96 hours
Description: For the T7E1 assay, PCR amplicons are approximately 500-700 bp with the intended cut site placed asymmetrically in the amplicon. Following amplification, purification and size-verification of PCR products, DNA is denatured and re-hybridized by heating to 95° C. and then slowly cooling. Hybridized PCR products are then digested with T7 Endonuclease I (or other mismatch-sensitive enzyme) which recognizes and cleaves non-perfectly matched DNA. […] Digestion products may be visualized by gel electrophoresis or by capillary electrophoresis. The fraction of DNA that is cleaved (density of cleavage products divided by the density of cleaved and uncleaved) may be used to estimate a percent NHEJ using the following equation: % NHEJ=(1-(1-fraction cleaved)^1/2). The T7E1 assay is sensitive down to about 2-5% NHEJ.
Human CD34^+ HSCs cells from mobilized peripheral blood (AllCells) were thawed into StemSpan Serum-Free Expansion Medium (SFEM, StemCell Technologies) containing 100 ng/mL each of the following cytokines: human stem cell factor (SCF), thrombopoietin (TPO), and flt-3 ligand (FL) (all from Peprotech). […]
In order to detect indels at the CXCR4 locus, T7E1 assays were performed on CXCR4 locus-specific PCR products that were amplified from genomic DNA samples from Nucleofected™ CD34^+ HSCs and then calculated the percentage of NHEJ detected at the CXCR4 locus (FIG. 11B).

Q: How did the “Percentage of genome editing at the CXCR4 locus with UM171 pre-treatment versus without” value turn out when `Cn1nnc(-c2ccc3c(c2)[nH]c2nc(Cc4ccccc4)nc(N[C@H]4CC[C@H](N)CC4)c23)n1` [UM171, (1r,4r)-N1-(2-benzyl-7-(2-methyl-2H-tetrazol-5-yl)-9H-pyrimido[4,5-b]indol-4-yl)cyclohexane-1,4-diamine] was run?
A: Its value is “higher percentage of genome editing at the CXCR4 locus; also recorded: increased genome editing at the CXCR4 locus”.
